Data on 10 compounds can be found in PubChem BioAssay (NCI).

Some test systems named below: SF-539 CNS; RPMI-8226 leukemia; UACC-257 melanoma; SK-MEL-28 melanoma; NCI-H23 lung; CAKI-1 renal; SF-268 CNS; RXF 393 renal.
Holding throughout (assay): NCI tumour cell line growth inhibition, 48 h

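The compound was tested at five concentrations on cells cultured in 96-well plates, with a 48-hour exposure period. At the GI50, growth is halved. TGI is the concentration that stops growth completely.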 Some results are limits rather than exact numbers.

Consider `CCCCn1c(=O)[nH]c(N)c([C@@H]2c3c([nH]c(=O)n(CCCC)c3=O)Oc3ccc4ccccc4c32)c1=O`, for which the GI50 was 7.86 µM with SF-539 CNS; 3.48 µM in the assay with RPMI-8226 leukemia; 2.41 µM in the assay with UACC-257 melanoma; 2.52 µM in the assay on SK-MEL-28 melanoma; 1.73 µM with NCI-H23 lung; 1.62 µM in the assay on CAKI-1 renal. In addition, the GI50 in the assay on SF-268 CNS was 1.76 µM; in the assay with RXF 393 renal it was 2.17 µM. Besides, the TGI in the assay on SF-539 CNS turned out to be 20.4 µM; in the assay on RPMI-8226 leukemia it was 13.5 µM; with UACC-257 melanoma, 5.78 µM; with SK-MEL-28 melanoma it was 6.23 µM; with NCI-H23 lung it was 3.7 µM; in the assay with CAKI-1 renal, 3.26 µM. The TGI amounted to 3.58 µM with SF-268 CNS and 4.27 µM in the assay on RXF 393 renal.
Turning to `N#CCCNc1nonc1-c1nc2ccccc2n1CC(=O)c1ccc(N)cc1`, the GI50 in the assay on SF-539 CNS was 0.0252 µM; in the assay with RPMI-8226 leukemia it was 0.0309 µM; in the assay on SK-MEL-28 melanoma, 0.0351 µM; with NCI-H23 lung, 0.0312 µM; with CAKI-1 renal, 0.0701 µM; with SF-268 CNS, 0.023 µM. The GI50 in the assay with RXF 393 renal was 0.0129 µM. Besides, the TGI with SF-539 CNS was 1.19 µM; in the assay on UACC-257 melanoma it was > 100 µM; in the assay on SK-MEL-28 melanoma, > 100 µM; with NCI-H23 lung, > 100 µM; in the assay with CAKI-1 renal, > 100 µM; with SF-268 CNS it was > 82 µM. The TGI with RXF 393 renal was > 100 µM.
Regarding `COC(=O)C(=O)C(C(=O)C(=O)Nc1ccc(Cl)c(Cl)c1)c1nc2ccc(C(=O)c3ccccc3)cc2[nH]c1=O` (centres undefined), the TGI with SF-539 CNS, with RPMI-8226 leukemia, in the assay with UACC-257 melanoma, with SK-MEL-28 melanoma, in the assay on NCI-H23 lung and in the assay with CAKI-1 renal was > 100 µM each time. In addition, the TGI with SF-268 CNS and in the assay with RXF 393 renal was > 100 µM throughout.
With `N#CC1=C(N)Oc2c(sc3c(Br)cccc23)C1c1ccc([N+](=O)[O-])cc1` (centres undefined), the GI50 in the assay on SF-539 CNS was 0.0619 µM; with RPMI-8226 leukemia, 0.116 µM; in the assay on UACC-257 melanoma, 11.4 µM; with SK-MEL-28 melanoma, 2.66 µM; with NCI-H23 lung it was 0.131 µM; in the assay on CAKI-1 renal it was 0.0837 µM. In addition, the GI50 in the assay on SF-268 CNS is 0.547 µM; with RXF 393 renal it was 0.036 µM. In addition, the TGI is 0.475 µM in the assay with SF-539 CNS; 6.49 µM in the assay on RPMI-8226 leukemia; 27.5 µM in the assay on UACC-257 melanoma; 21 µM with SK-MEL-28 melanoma; 13.2 µM in the assay with NCI-H23 lung; 16.9 µM in the assay on CAKI-1 renal. Also, the TGI worked out at 10.7 µM in the assay with SF-268 CNS and 2.23 µM in the assay on RXF 393 renal.
On to `CN1C(=O)C(c2c[nH]c3ccccc23)=C(c2c[nH]c3ccccc23)C1=O`, for which the GI50 with SF-539 CNS was 6.87 µM; in the assay with RPMI-8226 leukemia, 6.84 µM; with UACC-257 melanoma, 7.65 µM; with SK-MEL-28 melanoma it was 7.84 µM; in the assay with NCI-H23 lung, 6.61 µM; with CAKI-1 renal, 3.92 µM. The results for the GI50 in the assay with SF-268 CNS and in the assay with RXF 393 renal were 7.27 µM and 4.41 µM, respectively. Besides, the TGI in the assay with SF-539 CNS is > 25 µM; with RPMI-8226 leukemia, 25 µM; with UACC-257 melanoma it was 24.8 µM; in the assay on SK-MEL-28 melanoma it was > 25 µM; in the assay with NCI-H23 lung, > 25 µM; in the assay on CAKI-1 renal, 12.1 µM. Also, the values for the TGI with SF-268 CNS and in the assay on RXF 393 renal were > 25 µM and 12.8 µM, respectively.
For `CC(C)(C)CC(C)(C)c1ccc(OCCO)cc1`, the GI50 is 8.77 µg/mL in the assay with SF-539 CNS; 1.9 µg/mL with RPMI-8226 leukemia; 2.39 µg/mL in the assay with UACC-257 melanoma; 11.4 µg/mL in the assay on SK-MEL-28 melanoma; 1.33 µg/mL in the assay with NCI-H23 lung; 0.678 µg/mL in the assay on CAKI-1 renal. The results for the GI50 in the assay with SF-268 CNS and with RXF 393 renal were 8.87 µg/mL and 8.58 µg/mL, respectively. For the same compound, the TGI with SF-539 CNS stood at 19.5 µg/mL; in the assay with RPMI-8226 leukemia it was 19.5 µg/mL; in the assay with UACC-257 melanoma, 16.9 µg/mL; in the assay with SK-MEL-28 melanoma it was 29.7 µg/mL; in the assay on NCI-H23 lung, 20.9 µg/mL; with CAKI-1 renal, 8.37 µg/mL. For the same compound, the TGI in the assay with SF-268 CNS was found to be 27.3 µg/mL; in the assay on RXF 393 renal it was 18.1 µg/mL.
For the compound `COc1ccc(-c2nc3sc(-c4cc(OC)c(OC)c(OC)c4)nn3c2/C=C2/C(=O)Nc3ccc(F)cc32)cc1`, the GI50 is 56 µM in the assay on SF-539 CNS; 11.3 µM in the assay on RPMI-8226 leukemia; 3.35 µM in the assay on UACC-257 melanoma; 9.58 µM in the assay on SK-MEL-28 melanoma; 4.25 µM with NCI-H23 lung; 4.48 µM with CAKI-1 renal. Moreover, the GI50 in the assay with SF-268 CNS was 4.4 µM; with RXF 393 renal, 3.96 µM. Further, the TGI in the assay on SF-539 CNS is > 100 µM; with RPMI-8226 leukemia, 64.6 µM; with UACC-257 melanoma, 11.3 µM; with SK-MEL-28 melanoma, 27.8 µM; with NCI-H23 lung, 21.5 µM; in the assay with CAKI-1 renal, 20 µM. The TGI amounted to 33.1 µM in the assay on SF-268 CNS and 18.7 µM in the assay on RXF 393 renal.
Consider `Nc1ccc(/C=C/c2ccc3ncccc3c2)cc1`, for which the GI50 in the assay on SF-539 CNS is > 100 µM; in the assay with RPMI-8226 leukemia, 6.89 µM; in the assay with UACC-257 melanoma, > 100 µM; with SK-MEL-28 melanoma, > 100 µM; in the assay with NCI-H23 lung, > 100 µM; with SF-268 CNS, > 100 µM. Further, the GI50 in the assay with RXF 393 renal is 73.2 µM. The TGI in the assay with SF-539 CNS, with RPMI-8226 leukemia, with UACC-257 melanoma, with SK-MEL-28 melanoma, in the assay on NCI-H23 lung and in the assay with CAKI-1 renal was > 100 µM throughout. The TGI with SF-268 CNS and in the assay with RXF 393 renal was > 100 µM throughout.
With `CCN(Cc1ccc(OC)cc1)c1ccc(CO)c(Cl)c1`, the GI50 was 19.9 µM in the assay on SF-539 CNS; 6.23 µM with RPMI-8226 leukemia; 0.124 µM in the assay with UACC-257 melanoma; 16.3 µM in the assay with SK-MEL-28 melanoma; 13.7 µM in the assay on NCI-H23 lung; 1.14 µM in the assay on CAKI-1 renal. For the same compound, the GI50 is 29.1 µM with SF-268 CNS and 7.35 µM in the assay on RXF 393 renal. For the same compound, the TGI in the assay with SF-539 CNS is 46.3 µM; in the assay with RPMI-8226 leukemia, 46.1 µM; in the assay with UACC-257 melanoma it was 0.312 µM; in the assay on SK-MEL-28 melanoma, 36.6 µM; in the assay with NCI-H23 lung, 60 µM; with CAKI-1 renal, > 36.3 µM. Further, the TGI in the assay on SF-268 CNS is > 100 µM; in the assay on RXF 393 renal, 28.3 µM.
Consider `O=[N+]([O-])c1ccc(C2=NCCO2)cc1`, for which the GI50 in the assay on SF-539 CNS, in the assay on RPMI-8226 leukemia, in the assay on UACC-257 melanoma, with SK-MEL-28 melanoma, with NCI-H23 lung and in the assay on CAKI-1 renal was > 100 µM throughout. Moreover, the GI50 in the assay with SF-268 CNS and in the assay with RXF 393 renal was > 100 µM throughout. Further, the TGI with SF-539 CNS, with RPMI-8226 leukemia, in the assay on UACC-257 melanoma, in the assay with SK-MEL-28 melanoma, in the assay on NCI-H23 lung and with CAKI-1 renal was > 100 µM in each case. Besides, the TGI with SF-268 CNS and in the assay with RXF 393 renal was > 100 µM each time.
